Test results from US12582657B2, “Combination therapy including a KRAS G12C inhibitor and one or more additional pharmaceutically active agents for the treatment of cancers” (Amgen Inc., priority 2018, dated 2026).

What was measured:
[1] = target: T1, KRAS^G12C/C118A (Homo sapiens, UniProt P01116, C118A/G12C); assay: SOS1-catalyzed coupled nucleotide exchange assay (Alpha); assay type: biochemical
T1 construct: Recombinant His-tagged human KRAS^G12C/C118A (1-169); made in house; host or cells: Escherichia coli (KRAS, c-RAF); Trichoplusia ni (SOS1)
Experimental: (§1) A cysteine-light mutant construct was used for co-crystallization studies based on the work of Ostrem et al^15.
(§2) The inhibition of the SOS1-catalyzed nucleotide exchange activity of KRAS^G12C/C118A or KRAS^C118A was measured using Alpha (Amplified Luminescent Proximity Homogeneous Assay) technology. […] For all subsequent steps, DTT was added to the reaction buffer at a final concentration of 1 mM. […] Finally, c-RAF RBD (50 nM final), Alpha glutathione donor beads (PerkinElmer; 20 μg/mL final), and AlphaLISA® nickel chelate acceptor beads (PerkinElmer; 20 μg/mL final), all diluted in DTT-reaction buffer, were added. The reaction mixture was incubated at RT for 5 min, and then the plates were read on an EnVision® Multilabel Reader using the AlphaScreen protocol. […] Signal intensity corresponded with the association of c-RAF RBD with GTP-bound KRAS^G12C/C118A or KRAS^C118A and was normalized to DMSO control.

[2] = target: T2, KRAS^C118A (Homo sapiens, UniProt P01116, C118A); assay: as above; assay type: biochemical; details: wildtype at position 12
T2 construct: His-tagged human KRAS^C118A (1-169); made in house; host or cells: Escherichia coli (KRAS, c-RAF); Trichoplusia ni (SOS1)
Experimental: as §1, §2

[3] = tested on: ERK1/2 phosphorylation in CT-26 KRAS p.G12C tumors; assay: Tumor pharmacodynamic assay (p-ERK, MSD immunoassay); details: MEKi 10 mg/kg single oral dose; 2 hours
[4] = tested on: immune cells in CT-26 KRAS p.G12C tumors; assay: Tumor immunophenotyping by flow cytometry; assay type: in vivo, mouse; details: after 4 days of treatment
[5] = tested on: MIA PaCa-2 (pancreas); assay: In vitro two-way combination matrix, growth inhibition, Loewe synergy score; assay type: cell-based, human
[6] = target: KRAS^G12C (Homo sapiens, UniProt P01116, G12C); assay: Cellular kinetics from time- and concentration-dependence of p-ERK inhibition; assay type: cell-based; details: NCI-H358 cells
Experimental: To provide an alternative estimate of the rate of GTP-hydrolysis by KRAS^G12C, a SHP2 inhibitor was employed to eliminate all upstream signaling to KRAS.
To determine the kinetic values of covalent inhibitor-KRAS^G12C adduct formation in cells, basal ERK1/2 phosphorylation levels were measured following treatment with various inhibitor concentrations at various incubation times exactly as described above, and % activity values were used for the kinetic calculations.

[7] = tested on: NCI-H358 tumors; assay: Tumor xenograft efficacy study, single agent and combinations; assay type: in vivo, mouse; details: AMG 510 10 or 30 mg/kg QD oral; carboplatin 50 or 100 mg/kg IP 1x/week

T1 sequence (P01116 1-169 isoform P01116-2 G12C/C118A): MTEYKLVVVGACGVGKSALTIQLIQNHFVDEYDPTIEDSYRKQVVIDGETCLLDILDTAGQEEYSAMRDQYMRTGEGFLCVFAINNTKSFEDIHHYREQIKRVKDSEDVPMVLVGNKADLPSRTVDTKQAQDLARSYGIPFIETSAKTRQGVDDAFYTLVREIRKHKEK
Chain of KRAS^G12C (P01116 1-188 isoform P01116-2 G12C): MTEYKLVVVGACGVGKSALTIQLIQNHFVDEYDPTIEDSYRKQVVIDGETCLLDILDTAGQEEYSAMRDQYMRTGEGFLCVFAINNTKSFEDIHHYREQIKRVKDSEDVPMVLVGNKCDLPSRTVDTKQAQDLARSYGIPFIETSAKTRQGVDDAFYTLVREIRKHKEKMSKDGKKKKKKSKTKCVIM
T2 sequence (P01116 1-169 isoform P01116-2 C118A): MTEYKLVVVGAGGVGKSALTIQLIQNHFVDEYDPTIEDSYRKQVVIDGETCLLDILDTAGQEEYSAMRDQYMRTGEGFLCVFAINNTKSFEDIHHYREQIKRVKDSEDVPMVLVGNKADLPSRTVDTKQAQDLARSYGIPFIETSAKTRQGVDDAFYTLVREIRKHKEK

CCC(=O)N1CCN(c2nc(=O)n(-c3c(C)ccnc3C(C)C)c3nc(-c4c(O)cccc4F)c(F)cc23)[C@@H](C)C1 (atropisomer, axis not shown; (M)) [non-reactive analog of AMG 510, (M)-6-Fluoro-7-(2-fluoro-6-hydroxyphenyl)-1-(4-methyl-2-(2-propanyl)-3-pyridinyl)-4-((2S)-2-methyl-4-propanoyl-1-piperazinyl)pyrido[2,3-d]pyrimidin-2(1H)-one]
inhibition of KRAS^G12C/C118A nucleotide exchange [1]: minimal activity | inhibition of KRAS^C118A nucleotide exchange [2]: minimal activity

O=C(NOC[C@H](O)CO)c1ccc(F)c(F)c1Nc1ccc(I)cc1F [MEKi, N-(((2R)-2,3-dihydroxypropyl)oxy)-3,4-difluoro-2-((2-fluoro-4-iodophenyl)amino)benzamide]
MAPK signaling in tumors [3]: blocked MAPK signaling downstream of RAS | PD-1 expression on CD8+ T cells [4]: moderately increased | T cell infiltration of tumors [4]: did not affect numbers of infiltrating CD8+ T cells | infiltration of macrophages and dendritic cells [4]: not observed

Cc1nc(N2CCC3(CC2)CO[C@@H](C)[C@H]3N)c(CO)nc1-c1cccc(Cl)c1Cl [RMC-4550]
single agent activity [5]: lack of single agent activity | cellular GTP hydrolysis rate from p-ERK inhibition by SHP2 inhibitor [6]: 0.00094 s⁻¹

N.N.O=C([O-])C1(C(=O)[O-])CCC1.[Pt+2] [carboplatin]
tumor growth, carboplatin combination study [7]: significant tumor growth inhibition

C#Cc1cccc(Nc2ncnc3cc(OCCOC)c(OCCOC)cc23)c1 [erlotinib]
single agent activity [5]: lack of erlotinib activity
